As a reminder, the IC50 is the concentration at which inhibition is half-maximal. A low value points to higher potency. The solubility is how much of the substance goes into solution per volume.

Counter-ions that a name gives are not always drawn.

The subject of series [1] is release of TNF α from THP-1 cells. Briefly: Inhibitory activity of TNF α release from THP-1 cells (LPS, ELISA). Format: cell-based. As to conditions: 3 hr, 37° C., TNF α by ELISA. The method, then:
The inhibitory effect of each compound (compounds of Examples 1, 2, 3, 6, 35, 39 and 44) on the release of TNF α from THP-1 cells which are monocyte cultured cells [see Nature 370, 218-220 (1994)] was investigated.
The THP-1 cells were suspended to a concentration of 1×10 ^6 cells/ml in RPMI1640 medium supplemented with 10% fetal calf serum (FCS) and dispensed by 100 μl. A 2 μg/ml LPS was prepared with RPMI1640 medium supplemented with 10% FCS. Each compound (dissolved in dimethyl sulfoxide) was diluted 500-fold with the LPS solution.
The diluted solutions of these compounds were added to the dispensed cell suspensions by 100 μl and allowed for 3 hr to react under the conditions of 37° C., 5% CO2. After the completion of the reaction, the reaction mixture was centrifuged and the culture supernatant was collected. The TNF α amount was quantitatively measured by ELISA (enzyme-linked immunosorbent assay). The TNF α release inhibitory effect by each compound was calculated from the proportion of released TNF α amount of the compound addition group relative to that of the compound non-addition group.

A short description of series [2]: Solubility in saline (0.9% aqueous sodium chloride solution) at 25° C. Format: physicochemical. As to conditions: for solubility: saline or isotonic. The method, then:
The solubility of the Example compounds of the present invention in saline (0.9% aqueous sodium chloride solution) at 25° C. was measured.

The subject of series [3] is release of TNF α from LPS treated human whole blood. In words: Inhibitory activity of TNF α release from LPS treated human whole blood (ELISA). Format: cell-based. As to conditions: LPS treated human whole blood diluted 4-fold, 24 hr, 37° C., TNF α by ELISA. The method, then:
The inhibitory effect of each compound (compounds of Examples 2, 6, 7, 10, 11, 37, 147, 231 and 245) on the release of TNF α from LPS treated human whole blood [see: Lymphokine Res 8, 141-146 (1989)] was investigated.
Human whole blood was diluted 4-fold with RPMI1640 medium supplemented with 10% FCS. The diluted blood was dispensed to a 96 multi-well plate by 100 μl and equilibrated under the conditions of 37° C., 5% CO2. LPS (2 μg/ml) was prepared with RPMI1640 medium supplemented with 10% FCS and a culture broth prepared by dissolving each compound (dissolved in dimethyl sulfoxide) in the LPS solution was added by 100 μl/well (final concentrated of dimethyl sulfoxide 0.1%), which was followed by incubation for 24 hr (37° C., 5% CO2). After the incubation, the reaction mixture was centrifuged (1,500 rpm, 5 min). The culture supernatant (40 μl/well) was collected, and TNF α amount in the supernatant was quantitatively measured by ELISA. The TNF α release inhibitory effect by each compound was calculated from the proportion of release TNF α amount of the compound addition group relitive to that of the compound non-addition group.
Background: ELISA stands for enzyme-linked immunosorbent assay.

With `CC(C)C[C@@H](C(=O)N[C@@H](Cc1ccccc1)C(=O)c1ccc(OCCN2CCN(C)CC2)cc1)C(CN1C(=O)c2ccccc2C1=O)C(=O)NO` (single isomer, unassigned) [Example 1, 5-Methyl-3(R)-[1(S)-[4-[2-[1-(4-methyl)piperazinyl]ethoxy]benzoyl]-2-phenyl]ethylcarbamoyl-2(R or S)-phthalimidomethylhexanohydroxamic Acid Dihydrochloride], in series [1] (Homo sapiens), the IC50 was found to be 270 nM. In series [2], this molecule returned a solubility above 10 mg/mL.

As to `CC(C)C[C@@H](C(=O)N[C@@H](Cc1ccc(NC(=N)N)cc1)C(=O)c1ccco1)C(CN1C(=O)c2ccccc2C1=O)C(=O)NO` (single isomer, unassigned) [Example 3, 3(R)-[1(S)-(2-Furyl)carbonyl-2-(4-guanidinophenyl)]ethylcarbamoyl-5-methyl-2(R or S)-phthalimidomethylhexanohydroxamic Acid Hydrochloride], in series [1] (Homo sapiens), the midpoint of inhibition, the IC50, lay at 190 nM.

In the case of `CC(C)C[C@@H](C(=O)N[C@@H](Cc1ccc(OCCN(C)C)cc1)C(=O)c1ccco1)C(CN1C(=O)N(C)C(C)(C)C1=O)C(=O)NO.Cl` (single isomer, unassigned) [Example 5, 3(R)-[2-[4-(2-Dimethylaminoethoxy)phenyl]-1(S)-(2-furyl)carbonyl]ethylcarbamoyl-5-methyl-2(R or S)-(2,5-dioxo-3,4,4-trimethyl-1-imidazolidinyl)methylhexanohydroxamic Acid Hydrochloride], the solubility in series [2] was above 20 mg/mL.

In series [3], `CC(C)C[C@@H](C(=O)N[C@@H](Cc1ccc(S(=O)(=O)[O-])cc1)C(=O)c1ccco1)C(Cc1ccc2ccccc2c1)C(=O)NO.[Na+]` (single isomer, unassigned) [Example 7, Sodium Salt of 3(R)-[1(S)-(2-Furyl)carbonyl-2-(4-sulfophenyl)ethylcarbamoyl]-5-methyl-2(R or S)-(2-naphthylmethyl)hexanohydroxamic Acid] showed an IC50 of 2460 nM. Moreover, the solubility in series [2] was above 20 mg/mL.

In the case of `CC(C)C[C@@H](C(=O)N[C@@H](Cc1ccc(S(=O)(=O)[O-])cc1)C(=O)c1ccco1)C(Cc1cccc2ccccc12)C(=O)NO.[Na+]` (single isomer, unassigned) [Example 8, Sodium Salt of 3(R)-[1(S)-(2-Furyl)carbonyl-2-(4-sulfophenyl)ethylcarbamoyl]-5-methyl-2(R or S)-(1-naphthylmethyl)hexanohydroxamic Acid], in series [2], the solubility is above 20 mg/mL.

`CC(C)C[C@@H](C(=O)N[C@@H](Cc1ccc(S(=O)(=O)[O-])cc1)C(=O)c1ccco1)C(Cc1ccccc1)C(=O)NO.[Na+]` (single isomer, unassigned) [Example 9, Sodium Salt of 2(R or S)-Benzyl-3(R)-[1(S)-(2-furyl)carbonyl-2-(4-sulfophenyl)ethylcarbamoyl]-5-methylhexanohydroxamic Acid] yielded a solubility in series [2] above 20 mg/mL.

In series [3], `CC(C)C[C@@H](C(=O)N[C@@H](Cc1ccc(S(=O)(=O)[O-])cc1)C(=O)c1ccco1)C(CN1C(=O)c2ccccc2C1=O)C(=O)NO.[Na+]` (single isomer, unassigned) [Example 10, Sodium Salt of 3(R)-[1(S)-(2-Furyl)carbonyl-2-(4-sulfophenyl)ethylcarbamoyl]-5-methyl-2(R or S)-phthalimidomethylhexanohydroxamic Acid] came in with an IC50 of 1700 nM. The solubility in series [2] came to 10 mg/mL.

Consider `CC(C)C[C@@H](C(=O)N[C@@H](Cc1ccc(S(=O)(=O)[O-])cc1)C(=O)c1ccco1)C(CN1Cc2ccccc2C1=O)C(=O)NO.[Na+]` (single isomer, unassigned) [Example 11, Sodium Salt of 3(R)-[1(S)-(2-Furyl)carbonyl-2-(4-sulfophenyl)ethylcarbamoyl]-5-methyl-2(R or S)-(1-oxoisoindolin-2-ylmethyl)hexanohydroxamic Acid], for which half-maximal inhibition in series [3] (IC50) was put at 1730 nM. The molecule also gave a solubility in series [2] above 20 mg/mL.

In turn, `CC(C)C[C@@H](C(=O)N[C@@H](Cc1ccccc1)C(=O)c1ccc(OCCN(C)C)cc1)C(CCCc1ccccc1)C(=O)NO.Cl` (single isomer, unassigned) [Example 35, 3(R)-[1(S)-[4-(2-Dimethylaminoethoxy)benzoyl]-2-phenyl]ethylcarbamoyl-5-methyl-2(R or S)-(3-phenylpropyl)hexanohydroxamic Acid Hydrochloride] yielded an IC50 in series [1] of 140 nM. The “Solubility, saline” value in series [2] is above 20 mg/mL.

Molecule `CC(C)C[C@@H](C(=O)N[C@@H](Cc1ccccc1)C(=O)c1ccc(OCCN(C)C)cc1)C(CN1C(=O)N(C)C(C)(C)C1=O)C(=O)NO.Cl` (single isomer, unassigned) [Example 37, 3(R)-[1(S)-[4-(2-Dimethylaminoethoxy)benzoyl]-2-phenyl]ethylcarbamoyl-5-methyl-2(R or S)-(2,5-dioxo-3,4,4-trimethyl-1-imidazolidinyl)methylhexanohydroxamic Acid Hydrochloride] gave an IC50 in series [3] of 3470 nM. Further, the “Solubility, saline” value in series [2] is above 20 mg/mL.

For `CC(C)C[C@@H](C(=O)N[C@H](C(=O)c1ccc(OCCN(C)C)cc1)C(C)(C)C)C(CN1C(=O)c2ccccc2C1=O)C(=O)NO.Cl` (single isomer, unassigned) [Example 39, 3(R)-[2,2-Dimethyl-1(S)-[4-(2-dimethylaminoethoxy)benzoyl]]propylcarbamoyl-5-methyl-2(R or S)-phthalimidomethylhexanohydroxamic Acid Hydrochloride], the midpoint of inhibition in series [1], the IC50, lay at 300 nM. Moreover, in series [2], the “Solubility, saline” value is above 20 mg/mL.

`CC(C)C[C@@H](C(=O)N[C@@H](Cc1ccc(OCCN(C)C)cc1)C(=O)c1ccco1)C(CCCc1ccccc1)C(=O)NO` (single isomer, unassigned) [Example 44, 3(R)-[2-[4-(2-dimethylaminoethoxy)phenyl]-1(S)-(2-furyl)carbonyl]ethylcarbamoyl-5-methyl-2(R or S)-(3-phenylpropyl)hexanohydroxamic acid hydrochloride] returned an IC50 in series [1] of 420 nM.

For the molecule `CC(C)C[C@@H](C(=O)N[C@@H](Cc1ccc(OS(=O)(=O)[O-])cc1)C(=O)c1ccco1)C(CN1C(=O)N(C)C(C)(C)C1=O)C(=O)NO.[Na+]` (single isomer, unassigned) [Example 84, Sodium Salt of 3(R)-[1(S)-(2-Furyl)carbonyl-2-[4-(hydroxysulfonyloxy)phenyl]]ethylcarbamoyl-5-methyl-2(R or S)-(2,5-dioxo-3,4,4-trimethyl-1-imidazolidinyl)methylhexanohydroxamic Acid], the “Solubility, saline” value in series [2] was above 20 mg/mL.

With `CC(C)C[C@@H](C(=O)N[C@H](C(=O)c1ccc(OCCN(C)C)cc1)C(C)(C)C)C(CCCc1ccccc1)C(=O)NO.Cl` (single isomer, unassigned) [Example 88, 3(R)-[2,2-dimethyl-1(S)-[4-(2-dimethylaminoethoxy)benzoyl]]propylcarbamoyl-5-methyl-2(R or S)-(3-phenylpropyl)hexanohydroxamic acid hydrochloride], the “Solubility, saline” value in series [2] stood at 5 mg/mL.

`CC(C)C[C@@H](C(=O)N[C@H](C(=O)c1ccc(OCCN(C)C)cc1)C(C)(C)C)C(CN1C(=O)N(C)C(C)(C)C1=O)C(=O)NO.Cl` (single isomer, unassigned) [Example 147, 3(R)-[2,2-Dimethyl-1(S)-[4-(2-dimethylaminoethoxy)benzoyl]]propylcarbamoyl-5-methyl-2(R or S)-(2,5-dioxo-3,4,4-trimethyl-1-imidazolidinyl)methylhexanohydroxamic Acid Hydrochloride] came in with an IC50 in series [3] of 2290 nM. Further, the “Solubility, saline” value in series [2] was above 20 mg/mL.

For the molecule `CC(C)C[C@@H](C(=O)N[C@@H](Cc1ccccc1)C(=O)c1ccc(CO)o1)C(CN1C(=O)N(C)C(C)(C)C1=O)C(=O)NO` (single isomer, unassigned) [Example 245, 3(R)-[1(S)-[2-(5-Hydroxymethyl)furyl]carbonyl-2-phenyl]ethylcarbamoyl-5-methyl-2(R or S)-(2,5-dioxo-3,4,4-trimethyl-1-imidazolidinyl)methylhexanohydroxamic Acid], half-maximal inhibition in series [3] (IC50) was put at 3740 nM.

(Values after patent publication US6610729B1, “Hydroxamic acid derivatives and medicinal utilization thereof” (Mitsubishi Pharma Corporation, priority 1998, dated 2003).)
